Assay [1] addresses T1, human GPR139 receptor (Homo sapiens, UniProt Q6DWJ6).
T1 construct: expressed in transfected cells; host or cells: T-REx-CHO (Thermo Fisher Scientific), doxycycline-induced
T1 sequence (Q6DWJ6 1-353): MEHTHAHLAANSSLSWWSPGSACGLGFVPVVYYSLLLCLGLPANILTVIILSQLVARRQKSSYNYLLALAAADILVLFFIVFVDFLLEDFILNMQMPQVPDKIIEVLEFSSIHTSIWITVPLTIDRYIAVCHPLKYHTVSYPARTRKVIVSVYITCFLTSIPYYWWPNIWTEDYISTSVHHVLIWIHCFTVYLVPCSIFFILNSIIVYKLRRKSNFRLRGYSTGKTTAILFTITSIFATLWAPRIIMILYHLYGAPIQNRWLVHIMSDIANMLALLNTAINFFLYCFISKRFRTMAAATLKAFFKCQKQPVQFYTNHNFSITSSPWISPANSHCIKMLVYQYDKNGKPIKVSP
Briefly: Measurement of GPR139 Activation Via Calcium Signaling (FLIPR, T-REx-CHO cells). It is filed as cell-based. To be noted: T-REx-CHO cells stably expressing human GPR139, 11-point dose response, 10 μM maximum concentration, read-out: GPR139 Potency (pEC50) (converted). In short, it runs like this: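 T-REx-CHO cells stably carrying human GPR139 under tetracycline control, induced with 2 μg/mL doxycycline for 17 h at 37 °C, loaded 40 min with Calcium 5 dye plus probenecid in HBSS/HEPES pH 7.4. Agonist added as 11-point series (10 μM top); fluorescence read 1 min; pEC50 from four-parameter fit.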

Assay [2] has as its target T1, human GPR139 receptor. Nature of the assay: GPR139 Competition Binding (membrane-based, tritium-labeled ligand). Conditions: T-REx-CHO membranes with human GPR139; 6.5 nM tritium-labeled ligand; 11-point curve, 30 μM maximum concentration; read-out: GPR139 Binding Affinity (pKi) (converted). In short, it runs like this:
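Membranes came from doxycycline-induced T-REx-CHO cells expressing human GPR139. They were incubated 20 min at room temperature with 6.5 nM tritiated ligand and compound (11 points, top 30 μM) in HEPES pH 7.3 buffer with MgCl2/CaCl2. Filter-bound counts gave Ki by four-parameter fit, reported as pKi.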

Molecules are shown by their SMILES.

Turning to `C[C@H](NC(=O)Cn1ncc2ncn(C)c2c1=O)c1ccc(C(F)(F)F)cc1` [Example 139, (S)-2-(3-methyl-4-oxo-3,4-dihydro-5H-imidazo[4,5-d]pyridazin-5-yl)-N-(1-(4-(trifluoromethyl)phenyl)ethyl)acetamide], at human GPR139 receptor [1], the EC50 is 257 nM. In addition, on human GPR139 receptor [2], the Ki is 3800 nM.
For `Cc1ccc([C@H](C)NC(=O)Cn2ncc3c(ncn3C)c2=O)cc1` [Example 140, (S)-2-(1-methyl-4-oxo-1,4-dihydro-5H-imidazo[4,5-d]pyridazin-5-yl)-N-(1-(p-tolyl)ethyl)acetamide], in that order: 525 nM and 30200 nM.
The like results for `C[C@H](NC(=O)Cn1ncc2c(ncn2C)c1=O)c1ccc(C(F)(F)F)cc1` [Example 141, (S)-2-(1-methyl-4-oxo-1,4-dihydro-5H-imidazo[4,5-d]pyridazin-5-yl)-N-(1-(4-(trifluoromethyl)phenyl)ethyl)acetamide] were, in that order, 457 nM and 5890 nM.
For `C[C@H](NC(=O)Cn1ncc2c(C3CC3)nn(C)c2c1=O)c1ccc(C(F)(F)F)cc1` [Example 142, (S)-2-(3-cyclopropyl-1-methyl-7-oxo-1,7-dihydro-6H-pyrazolo[3,4-d]pyridazin-6-yl)-N-(1-(4-(trifluoromethyl)phenyl)ethyl)acetamide], in that order: 95.5 nM and 229 nM.
Turning to `C[C@H](NC(=O)Cn1ncc2c(C3CC3)nn(C)c2c1=O)c1ccc(OC(F)(F)F)cc1` [Example 143, (S)-2-(3-cyclopropyl-1-methyl-7-oxo-1,7-dihydro-6H-pyrazolo[3,4-d]pyridazin-6-yl)-N-(1-(4-(trifluoromethoxy)phenyl)ethyl)acetamide], the EC50 on human GPR139 receptor [1] is 117 nM. Moreover, at human GPR139 receptor [2], the Ki is 178 nM.
The like results for `Cc1cn(C2CC2)c2cnn(CC(=O)N[C@@H](C)c3ccc(C(F)(F)F)cc3)c(=O)c12` [Example 144, (S)-2-(1-cyclopropyl-3-methyl-4-oxo-1,4-dihydro-5H-pyrrolo[2,3-d]pyridazin-5-yl)-N-(1-(4-(trifluoromethyl)phenyl)ethyl)acetamide] were, in that order, 83.2 nM and 20 nM.
The like results for `COc1ccc([C@H](C)NC(=O)Cn2ncc3c(c(C)cn3C3CC3)c2=O)cc1` [Example 145, (S)-2-(1-cyclopropyl-3-methyl-4-oxo-1,4-dihydro-5H-pyrrolo[2,3-d]pyridazin-5-yl)-N-(1-(4-methoxyphenyl)ethyl)acetamide] were, in that order, 29.5 nM and 89.1 nM.
The like results for `Cc1cn(C2CC2)c2cnn(CC(=O)N[C@@H](C)c3ccccc3)c(=O)c12` [Example 146, (S)-2-(1-cyclopropyl-3-methyl-4-oxo-1,4-dihydro-5H-pyrrolo[2,3-d]pyridazin-5-yl)-N-(1-phenylethyl)acetamide] were, in that order, 51.3 nM and 34.7 nM.
Consider `Cc1ccc([C@H](C)NC(=O)Cn2ncc3c(c(C)cn3C3CC3)c2=O)cc1` [Example 147, (S)-2-(1-cyclopropyl-3-methyl-4-oxo-1,4-dihydro-5H-pyrrolo[2,3-d]pyridazin-5-yl)-N-(1-(p-tolyl)ethyl)acetamide], for which the EC50 at human GPR139 receptor [1] was 33.1 nM. On human GPR139 receptor [2], the Ki was 7.59 nM.
Regarding `C[C@H](NC(=O)Cn1ncc2c(C3CC3)nn(C)c2c1=O)c1cccc(F)c1` [Example 148, (S)-2-(3-cyclopropyl-1-methyl-7-oxo-1,7-dihydro-6H-pyrazolo[3,4-d]pyridazin-6-yl)-N-(1-(3-fluorophenyl)ethyl)acetamide], at human GPR139 receptor [1], the EC50 is 20 nM. For the same compound, on human GPR139 receptor [2], the Ki is 589 nM.
For `Cc1ccc([C@H](C)NC(=O)Cn2ncc3c(C4CC4)nn(C)c3c2=O)cc1` [Example 149, (S)-2-(3-cyclopropyl-1-methyl-7-oxo-1,7-dihydro-6H-pyrazolo[3,4-d]pyridazin-6-yl)-N-(1-(p-tolyl)ethyl)acetamide], in that order: 26.3 nM and 219 nM.
For `C[C@H](NC(=O)Cn1ncc2c(C3CC3)nn(C)c2c1=O)c1c(F)cccc1Cl` [Example 150, (S)—N-(1-(2-chloro-6-fluorophenyl)ethyl)-2-(3-cyclopropyl-1-methyl-7-oxo-1,7-dihydro-6H-pyrazolo[3,4-d]pyridazin-6-yl)acetamide], in that order: 47.9 nM and 77.6 nM.
For `Cc1ccc([C@H](C)NC(=O)Cn2ncc3c(C4CC4)nn(C)c3c2=O)cc1F` [Example 151, (S)-2-(3-cyclopropyl-1-methyl-7-oxo-1,7-dihydro-6H-pyrazolo[3,4-d]pyridazin-6-yl)-N-(1-(3-fluoro-4-methylphenyl)ethyl)acetamide], in that order: 20.4 nM and 60.3 nM.
Turning to `Cc1ccc([C@H](C)NC(=O)Cn2ncc3c(C4CC4)nn(C)c3c2=O)c(F)c1` [Example 152, (S)-2-(3-cyclopropyl-1-methyl-7-oxo-1,7-dihydro-6H-pyrazolo[3,4-d]pyridazin-6-yl)-N-(1-(2-fluoro-4-methylphenyl)ethyl)acetamide], at human GPR139 receptor [1], the EC50 was 28.8 nM. Also, at human GPR139 receptor [2], the Ki was 110 nM.
For `C[C@H](NC(=O)Cn1ncc2ccn(C)c2c1=O)c1ccccc1` [Example 153, (S)-2-(1-methyl-7-oxo-1,7-dihydro-6H-pyrrolo[2,3-d]pyridazin-6-yl)-N-(1-phenylethyl)acetamide], in that order: 89.1 nM and 1740 nM.
Regarding `Cc1nn(CC(=O)N[C@@H](C)c2cccc(F)c2)c(=O)c2c1c(C)nn2C` [Example 154, (S)—N-(1-(3-fluorophenyl)ethyl)-2-(1,3,4-trimethyl-7-oxo-1,7-dihydro-6H-pyrazolo[3,4-d]pyridazin-6-yl)acetamide], the EC50 on human GPR139 receptor [1] is 21.4 nM. Moreover, the Ki at human GPR139 receptor [2] was 490 nM.
For the compound `Cc1nn(C2CCC2)c2cnn(CC(=O)N[C@@H](C)c3ccc(C(F)(F)F)cc3)c(=O)c12` [Example 155, (S)-2-(1-cyclobutyl-3-methyl-4-oxo-1,4-dihydro-5H-pyrazolo[3,4-d]pyridazin-5-yl)-N-(1-(4-(trifluoromethyl)phenyl)ethyl)acetamide], the EC50 on human GPR139 receptor [1] is 87.1 nM. Further, the Ki on human GPR139 receptor [2] was 178 nM.
For `Cc1nn(C23CC(C2)C3)c2cnn(CC(=O)N[C@@H](C)c3ccc(C(F)(F)F)cc3)c(=O)c12` [Example 156, (S)-2-(1-(bicyclo[1.1.1]pentan-1-yl)-3-methyl-4-oxo-1,4-dihydro-5H-pyrazolo[3,4-d]pyridazin-5-yl)-N-(1-(4-(trifluoromethyl)phenyl)ethyl)acetamide], in that order: 107 nM and 331 nM.
The like results for `Cc1nn(C(C)(C)C)c2cnn(CC(=O)N[C@@H](C)c3ccc(C(F)(F)F)cc3)c(=O)c12` [Example 157, (S)-2-(1-(tert-butyl)-3-methyl-4-oxo-1,4-dihydro-5H-pyrazolo[3,4-d]pyridazin-5-yl)-N-(1-(4-(trifluoromethyl)phenyl)ethyl)acetamide] were, in that order, 126 nM and 234 nM.
For `Cc1ccc([C@H](C)NC(=O)Cn2ncc3c(C4CC4)cn(C)c3c2=O)cc1` [Example 158, (S)-2-(3-cyclopropyl-1-methyl-7-oxo-1,7-dihydro-6H-pyrrolo[2,3-d]pyridazin-6-yl)-N-(1-(p-tolyl)ethyl)acetamide], in that order: 57.5 nM and 47.9 nM.
With `C[C@H](NC(=O)Cn1ncc2c(C3CC3)cn(C)c2c1=O)c1ccc(C(F)(F)F)cc1` [Example 159, (S)-2-(3-cyclopropyl-1-methyl-7-oxo-1,7-dihydro-6H-pyrrolo[2,3-d]pyridazin-6-yl)-N-(1-(4-(trifluoromethyl)phenyl)ethyl)acetamide], the EC50 on human GPR139 receptor [1] was 100 nM. Moreover, at human GPR139 receptor [2], the Ki is 79.4 nM.
Regarding `Cc1nn(C2CC2)c2cnn(CC(=O)N[C@H](C)c3ccc(C(F)(F)F)cc3)c(=O)c12` [Example 160, (R)-2-(1-cyclopropyl-3-methyl-4-oxo-1,4-dihydro-5H-pyrazolo[3,4-d]pyridazin-5-yl)-N-(1-(4-(trifluoromethyl)phenyl)ethyl)acetamide], the EC50 at human GPR139 receptor [1] is 295 nM. For the same compound, the Ki on human GPR139 receptor [2] is 30200 nM.
For `C[C@H](NC(=O)Cn1ncc2ccn(C)c2c1=O)c1ccc(Cl)cc1` [Example 161, (S)—N-(1-(4-chlorophenyl)ethyl)-2-(1-methyl-7-oxo-1,7-dihydro-6H-pyrrolo[2,3-d]pyridazin-6-yl)acetamide], in that order: 8.51 nM and 105 nM.
The like results for `Cc1ccc([C@H](C)NC(=O)Cn2ncc3ccn(C)c3c2=O)cc1` [Example 162, (S)-2-(1-methyl-7-oxo-1,7-dihydro-6H-pyrrolo[2,3-d]pyridazin-6-yl)-N-(1-(p-tolyl)ethyl)acetamide] were, in that order, 13.2 nM and 195 nM.
For `COc1ccc([C@H](C)NC(=O)Cn2ncc3ccn(C)c3c2=O)cc1` [Example 163, (S)—N-(1-(4-methoxyphenyl)ethyl)-2-(1-methyl-7-oxo-1,7-dihydro-6H-pyrrolo[2,3-d]pyridazin-6-yl)acetamide], the EC50 at human GPR139 receptor [1] is 15.5 nM. The Ki on human GPR139 receptor [2] was 1780 nM.

The record behind these values is patent US12370192B2, “Azole-fused pyridazin-3(2H)-one derivatives” (TAKEDA PHARMACEUTICAL COMPANY LIMITED, priority 2019, dated 2025).
